The values below come from US12145913B2, “Inhibition of Olig2 activity” (Curtana Pharmaceuticals, Inc., priority 2016, dated 2024).

The experiment deals with GBM8 human glioblastoma cells. Kind of experiment: GBM8 viability assay (Cell Titer Glo). The format is cell-based. As to conditions: 72 h, Table 1, 3 days incubation, luminescence. How it is done: Cell culture medium was prepared from a NSA proliferation kit (Neurocult) and NeuroCult supplements (Stemcell Tech Cat. #05751) and treated with 20 μL of 10 μg/mL rh EGF, 10 μL of 10 μg/mL rh bFGF and 10 μL of 0.2% Heparin. In this medium, human glioblastoma cells were cultured in ultra-low attachment tissue culture flasks until 1×10^6 cells ml was achieved (GBM4 and GBM8 are distinct neurosphere cell cultures derived from these human patient tissues). GBM4 and GBM8 cells were dissociated and 10 mL of media containing 4000 human glioblastoma cells per 90 μL were transferred to an ultra-low binding 96-well plate and incubated at 37° C. overnight. On the following day, 10 μL of a 1% DMSO solution of test compound in assay medium was added to wells containing the cell suspension and the mixture incubated at 37° C. for 3 days. At this time, the plate was removed from the incubator and allowed to reach room temperature. After about 30 minutes, 50 μL of Cell Titer Glo solution was added to each well and the plate shaken for 1 minute at low speed. After 10 minutes luminescence was recorded using a Tecan Safire2 reader.
Reduction in luminescence compared to DMSO only control wells was used to determine the percentage inhibition of cell growth. IC50s were calculated using the % inhibition of luminescence for serial dilutions of compounds fitted to a 4-parameter fit within the Prism (San Diego) curve fitting program. Tables 1 (compounds 3-188) and 2 (compounds 190-212) show the GBM4 IC50 and GBM8 IC50 for compounds described herein.

In turn, `CNCCCCNc1cc(C)nc(NC(=O)Nc2ccc3cnccc3c2)n1` [Compound 65, 1-(isoquinolin-6-yl)-3-(4-methyl-6-((4-(methylamino)butyl)amino)pyrimidin-2-yl)urea] had an IC50 of less than 500 nM.

As to `CC(=O)NCCCNc1cc(C)nc(NC(=O)Nc2ccc3cnccc3c2)n1` [Compound 66, N-(3-((2-(3-(isoquinolin-6-yl)ureido)-6-methylpyrimidin-4-yl)amino)propyl)acetamide], the 50% inhibitory concentration (IC50) is less than 500 nM.

As for `CC(=O)NCCNc1cc(C)nc(NC(=O)Nc2ccc3cnccc3c2)n1` [Compound 67, N-(2-((2-(3-(isoquinolin-6-yl)ureido)-6-methylpyrimidin-4-yl)amino)ethyl)acetamide], the IC50 was less than 500 nM.

For the compound `Cc1cc(NCCCNS(C)(=O)=O)nc(NC(=O)Nc2ccc3cnccc3c2)n1` [Compound 71, N-(3-((2-(3-(isoquinolin-6-yl)ureido)-6-methylpyrimidin-4-yl)amino)propyl)methanesulfonamide], the IC50 is less than 500 nM.

Take `Cc1cc(NCCNS(C)(=O)=O)nc(NC(=O)Nc2ccc3cnccc3c2)n1` [Compound 75, N-(2-((2-(3-(isoquinolin-6-yl)ureido)-6-methylpyrimidin-4-yl)amino)ethyl)methanesulfonamide]: the IC50 was less than 500 nM.

`Cc1cc(NCCC(=O)N(C)C)nc(NC(=O)Nc2ccc3cnccc3c2)n1` [Compound 76, 3-((2-(3-(isoquinolin-6-yl)ureido)-6-methylpyrimidin-4-yl)amino)-N,N-dimethylpropanamide] displayed an IC50 of 500 to 5000 nM.

On to `CNC(=O)CCNc1cc(C)nc(NC(=O)Nc2ccc3cnccc3c2)n1` [Compound 77, 3-((2-(3-(isoquinolin-6-yl)ureido)-6-methylpyrimidin-4-yl)amino)-N-methylpropanamide], for which the IC50 was less than 500 nM.

`Cc1cc(NCCCN(C)C)nc(NC(=O)Nc2ccc3occc3c2)n1` [Compound 80, 1-(benzofuran-5-yl)-3-(4-((3-(dimethylamino)propyl)amino)-6-methylpyrimidin-2-yl)urea]: the concentration for half-maximal inhibition (IC50) was less than 500 nM.

`Cc1cc(NCCN(C)C)nc(NC(=O)Nc2ccc3occc3c2)n1` [Compound 81, 1-(benzofuran-5-yl)-3-(4-((2-(dimethylamino)ethyl)amino)-6-methylpyrimidin-2-yl)urea] had an IC50 of less than 500 nM.

`Cc1cc(NCCN)nc(NC(=O)Nc2ccc3occc3c2)n1` [Compound 82, 1-(4-((2-aminoethyl)amino)-6-methylpyrimidin-2-yl)-3-(benzofuran-5-yl)urea] registered a half-maximal inhibitory concentration (IC50) of less than 500 nM.

`Cc1cc(NCCCN)nc(NC(=O)Nc2ccc3occc3c2)n1` [Compound 83, 1-(4-((3-aminopropyl)amino)-6-methylpyrimidin-2-yl)-3-(benzofuran-5-yl)urea]: the IC50 is less than 500 nM.

The compound `CC(=O)NCCNc1cc(C)nc(NC(=O)Nc2ccc3occc3c2)n1` [Compound 84, N-(2-((2-(3-(benzofuran-5-yl)ureido)-6-methylpyrimidin-4-yl)amino)ethyl)acetamide] yielded an IC50 of less than 500 nM.

In the case of `CC(=O)NCCCNc1cc(C)nc(NC(=O)Nc2ccc3occc3c2)n1` [Compound 85, N-(3-((2-(3-(benzofuran-5-yl)ureido)-6-methylpyrimidin-4-yl)amino)propyl)acetamide], the IC50 was less than 500 nM.

Compound `Cc1cc(NCCNS(C)(=O)=O)nc(NC(=O)Nc2ccc3occc3c2)n1` [Compound 86, N-(2-((2-(3-(benzofuran-5-yl)ureido)-6-methylpyrimidin-4-yl)amino)ethyl)methanesulfonamide] yielded an IC50 of less than 500 nM.

`Cc1cc(NCCCN(C)C)nc(NC(=O)Nc2cc3ccccc3cn2)n1` [Compound 89, 1-(4-((3-(dimethylamino)propyl)amino)-6-methylpyrimidin-2-yl)-3-(isoquinolin-3-yl)urea] returned an IC50 of 5000 to 30000 nM.

`Cc1cc(NCCN)nc(NC(=O)Nc2cc3ccccc3cn2)n1` [Compound 90, 1-(4-((2-aminoethyl)amino)-6-methylpyrimidin-2-yl)-3-(isoquinolin-3-yl)urea] registered a half-maximal inhibitory concentration (IC50) of 500 to 5000 nM.

For `Cc1cc(NCCCN)nc(NC(=O)Nc2cc3ccccc3cn2)n1` [Compound 91, 1-(4-((3-aminopropyl)amino)-6-methylpyrimidin-2-yl)-3-(isoquinolin-3-yl)urea], the IC50 is 500 to 5000 nM.

`CC(=O)NCCCNc1cc(C)nc(NC(=O)Nc2cc3ccccc3cn2)n1` [Compound 92, N-(3-((2-(3-(isoquinolin-3-yl)ureido)-6-methylpyrimidin-4-yl)amino)propyl)acetamide] displayed a half-inhibitory concentration (IC50) of 500 to 5000 nM.

As for `Cc1cc(NCCNS(C)(=O)=O)nc(NC(=O)Nc2cc3ccccc3cn2)n1` [Compound 93, N-(2-((2-(3-(isoquinolin-3-yl)ureido)-6-methylpyrimidin-4-yl)amino)ethyl)methanesulfonamide], the IC50 fell in the range of 500 to 5000 nM.

`Cc1cc(NCCCN(C)C)nc(NC(=O)Nc2ccc3ccccc3n2)n1` [Compound 96, 1-(4-((3-(dimethylamino)propyl)amino)-6-methylpyrimidin-2-yl)-3-(quinolin-2-yl)urea] registered an IC50 of 500 to 5000 nM.

`Cc1cc(NCCN(C)C)nc(NC(=O)Nc2ccc3ccccc3n2)n1` [Compound 97, 1-(4-((2-(dimethylamino)ethyl)amino)-6-methylpyrimidin-2-yl)-3-(quinolin-2-yl)urea] returned an IC50 of 5000 to 30000 nM.

On to `Cc1cc(NCCN)nc(NC(=O)Nc2ccc3ccccc3n2)n1` [Compound 98, 1-(4-((2-aminoethyl)amino)-6-methylpyrimidin-2-yl)-3-(quinolin-2-yl)urea], for which the IC50 is 500 to 5000 nM.

Compound `Cc1cc(NCCCN)nc(NC(=O)Nc2ccc3ccccc3n2)n1` [Compound 99, 1-(4-((3-aminopropyl)amino)-6-methylpyrimidin-2-yl)-3-(quinolin-2-yl)urea] displayed an IC50 of 500 to 5000 nM.

In turn, `CC(=O)NCCCNc1cc(C)nc(NC(=O)Nc2ccc3ccccc3n2)n1` [Compound 100, N-(3-((6-methyl-2-(3-(quinolin-2-yl)ureido)pyrimidin-4-yl)amino)propyl)acetamide] came in with an IC50 of 500 to 5000 nM.

In turn, `CC(=O)NCCNc1cc(C)nc(NC(=O)Nc2ccc3ccccc3n2)n1` [Compound 101, N-(2-((6-methyl-2-(3-(quinolin-2-yl)ureido)pyrimidin-4-yl)amino)ethyl)acetamide] yielded an IC50 of 500 to 5000 nM.

For `Cc1cc(NCCNS(C)(=O)=O)nc(NC(=O)Nc2ccc3ccccc3n2)n1` [Compound 102, N-(2-((6-methyl-2-(3-(quinolin-2-yl)ureido)pyrimidin-4-yl)amino)ethyl)methanesulfonamide], the IC50 fell in the range of 500 to 5000 nM.

With `Cc1cc(NCCCN(C)C)nc(NC(=O)Nc2ccc3ncccc3c2)n1` [Compound 105, 1-(4-((3-(dimethylamino)propyl)amino)-6-methylpyrimidin-2-yl)-3-(quinolin-6-yl)urea], the 50% inhibitory concentration (IC50) fell in the range of 500 to 5000 nM.

The compound `Cc1cc(NCCN(C)C)nc(NC(=O)Nc2ccc3ncccc3c2)n1` [Compound 106, 1-(4-((2-(dimethylamino)ethyl)amino)-6-methylpyrimidin-2-yl)-3-(quinolin-6-yl)urea] gave an IC50 of 500 to 5000 nM.

`Cc1cc(NCCN)nc(NC(=O)Nc2ccc3ncccc3c2)n1` [Compound 107, 1-(4-((2-aminoethyl)amino)-6-methylpyrimidin-2-yl)-3-(quinolin-6-yl)urea] showed an IC50 of 500 to 5000 nM.

As for `Cc1cc(NCCCN)nc(NC(=O)Nc2ccc3ncccc3c2)n1` [Compound 108, 1-(4-((3-aminopropyl)amino)-6-methylpyrimidin-2-yl)-3-(quinolin-6-yl)urea], the IC50 lay in the range of 500 to 5000 nM.

As to `CC(=O)NCCCNc1cc(C)nc(NC(=O)Nc2ccc3ncccc3c2)n1` [Compound 109, N-(3-((6-methyl-2-(3-(quinolin-6-yl)ureido)pyrimidin-4-yl)amino)propyl)acetamide], the IC50 lay within 500 to 5000 nM.

Compound `CC(=O)NCCNc1cc(C)nc(NC(=O)Nc2ccc3ncccc3c2)n1` [Compound 110, N-(2-((6-methyl-2-(3-(quinolin-6-yl)ureido)pyrimidin-4-yl)amino)ethyl)acetamide] returned a half-inhibitory concentration (IC50) of 500 to 5000 nM.

As to `Cc1cc(NCCNS(C)(=O)=O)nc(NC(=O)Nc2ccc3ncccc3c2)n1` [Compound 111, N-(2-((6-methyl-2-(3-(quinolin-6-yl)ureido)pyrimidin-4-yl)amino)ethyl)methanesulfonamide], the half-maximal inhibitory concentration (IC50) is less than 500 nM.

As for `Cc1cc(NCCCN(C)C)nc(NC(=O)Nc2ccc3ccncc3c2)n1` [Compound 114, 1-(4-((3-(dimethylamino)propyl)amino)-6-methylpyrimidin-2-yl)-3-(isoquinolin-7-yl)urea], the IC50 was less than 500 nM.

Compound `Cc1cc(NCCN(C)C)nc(NC(=O)Nc2ccc3ccncc3c2)n1` [Compound 115, 1-(4-((2-(dimethylamino)ethyl)amino)-6-methylpyrimidin-2-yl)-3-(isoquinolin-7-yl)urea] displayed a concentration for half-maximal inhibition (IC50) of 500 to 5000 nM.

With `Cc1cc(NCCN)nc(NC(=O)Nc2ccc3ccncc3c2)n1` [Compound 116, 1-(4-((2-aminoethyl)amino)-6-methylpyrimidin-2-yl)-3-(isoquinolin-7-yl)urea], the IC50 was in the range of 500 to 5000 nM.

The compound `Cc1cc(NCCCN)nc(NC(=O)Nc2ccc3ccncc3c2)n1` [Compound 117, 1-(4-((3-aminopropyl)amino)-6-methylpyrimidin-2-yl)-3-(isoquinolin-7-yl)urea] returned a half-maximal inhibitory concentration (IC50) of 500 to 5000 nM.
